Experimental data reported in patent US20250002453A1, “PHARMACEUTICALLY ACCEPTABLE SALT OF ELIGLUSTAT AND CRYSTAL FORM THEREOF” (SPEROGENIX (SHANGHAI) MEDTECH CO., LTD., priority 2021, published 2025).

Assay: Deliquescence / moisture uptake observed under room humidity or during XRPD testing
Type: physicochemical
Details: under room humidity conditions
Protocol: Free crystalline form A and 0.5 equivalent of L-malic acid were suspended and stirred in EtOAc for 1 day at room temperature to obtain the sample. The solid was separated by centrifugation and dried under vacuum to obtain crystalline form A of malate.
Free crystalline form A and 0.5 equivalent of L-malic acid were suspended and stirred in IPAc/n-heptane (1:5, v:v) for 1 day at room temperature and 2 days at 40° C., and then the solid was separated by centrifugation. Upon vacuum drying, crystalline form B of malate was obtained.

deliquescence / moisture absorption: deliquesced significantly
SMILES: CCCCCCCC(=O)NC(CN1CCCC1)C(O)c1ccc2c(c1)OCCO2.O=C(O)CC(O)C(=O)O (stereo not shown) [Crystalline form A of malate]
